Measured values from patent EP0381345B1, “Aqueous liquid desmopressin-CMC pharmaceutical composition” (CORINT, LTD., priority 1989, dated 1990).
Marks after values point to notes of the source that are not given here.

How the values were obtained:
Normal test subjects = details: in vivo
Experimental: Normal test subjects were loaded with 1.5% body weight of water under constantly maintained conditions, with urine being collected every 30 minutes, as described by J.H. Cort et al., Kidney International. 8:292, 1975, and then they were administered dDAVP intranasally, using a standard 0.1 mg/ml formulation obtained from Ferring AB of Malmo. A portion of the dDAVP was set aside, while Na-CMC was added to another portion to form a solution having a CMC:dDAVP weight ratio of 100:1.

[1] = in vivo, iv; cited from earlier work
in vivo = details: male, rat, sc, pH 4

For `NC(=O)CC[C@@H]1NC(=O)[C@H](Cc2ccccc2)NC(=O)[C@H](Cc2ccc(O)cc2)NC(=O)CCSSC[C@@H](C(=O)N2CCC[C@H]2C(=O)N[C@H](CCCN=C(N)N)C(=O)NCC(N)=O)NC(=O)[C@H](CC(N)=O)NC1=O` [dDAVP, desmopressin], the “Peak % Inhibition of Diuretic Urine Flow” value (Normal test subjects) is given as -76.7* %, the “half-life (T1/2)” value [1] is given as 17 to 18 min and the Cmax (in vivo) is given as 0.027 ng/mL. It also gave a Tmax (in vivo) of 8.8 min and a half-life (in vivo) of 20.5 min.
